Laboratory results from PubChem BioAssay (NCI).
“And” between values parts separate entries of the source, which are not always exact repeats. Equal values may be shown once.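 Method: 48-hour compound exposure of cells in 96-well plates, five concentrations, linear interpolation of endpoints. GI50 marks 50% less growth. TGI is the concentration that stops growth completely.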

Test system: A498 renal
Experiment: NCI anticancer screen, dose series, 48 h

SMILES | GI50 [µM] | TGI
COc1ccc2c(c1)C(C)Cc1c(Cl)ncnc1N2C (stereo not given) | 0.23 | 0.744 µM
COCCOc1cc(F)c2c(Nc3ccc(NC(=O)Cn4cc(C(C)C)nn4)cc3)ncnc2c1 | > 100 | > 100 µM
C#Cc1cccc(Nc2ncnc3cc(OC)c(OCCCCCCC(=O)NO)cc23)c1 | 0.162 | 0.662 µM
Cc1nnc(S(=O)(=O)c2ccc(N=Nc3c(N)nc(N)nc3N)cc2)s1 | – | > 100 µM
O=c1n(CC2CO2)c(=O)n(CC2CO2)c(=O)n1CC1CO1 (stereo not given) | 12.2 | 83.9 µM and 26.5 µM
Cc1ccc(C(SCC(N)C(=O)O)(c2ccccc2)c2ccc(C)cc2)cc1 (stereo not given) | 0.225 | 4.5 µM
COc1cc(Nc2cn[nH]c2-c2ccc(Cl)cc2)cc(OC)c1OC | 4.58 | 23.8 µM
O=C(c1ccccc1)c1cc(Cl)ccc1OCCCCN1CCN(CCCCOc2ccc(Cl)cc2C(=O)c2ccccc2)CC1 | 15.2 | 28.6 µM
CNCCNc1c2c(c(NCCNC)c3c(CN(C)C)c[nH]c13)C(=O)c1ccccc1C2=O | 1.41 | 6.27 µM
CC1OC2CC(=O)OC2C2=C1C(=O)c1c(O)cccc1C2=O (stereo not given) | 0.348 | 1.38 µM
Oc1ccc(Cl)cc1Cc1cc(Cl)cc(Cl)c1O | 8.73 | 29.2 µM
C=C(C=O)C1CCC2(C(=O)O)CCC3(C)C(CCC4C5(C)CCC(O)C(C)(C)C5CCC43C)C12 (stereo not given) | 4.77 | 14.4 µM
COc1ccc(N2C(=O)C(c3ccccc3)(c3ccccc3)C23C(=O)N(C)c2ccccc23)cc1 (stereo not given) | > 100 | > 100 µM
O=c1c2ccccc2[se]n1-c1cccnc1 | – | 61.9 µM

Test system: IGROV1 ovarian
Experiment: NCI anticancer screen, dose series, 48 h

SMILES | GI50 | TGI
COc1ccc2c(c1)C(C)Cc1c(Cl)ncnc1N2C (stereo not given) | 1.96 µM | > 69.6 µM
COCCOc1cc(F)c2c(Nc3ccc(NC(=O)Cn4cc(C(C)C)nn4)cc3)ncnc2c1 | > 100 µM | > 100 µM
C#Cc1cccc(Nc2ncnc3cc(OC)c(OCCCCCCC(=O)NO)cc23)c1 | 0.0864 µM | 0.476 µM
Cc1nnc(S(=O)(=O)c2ccc(N=Nc3c(N)nc(N)nc3N)cc2)s1 | – | > 100 µM
O=c1n(CC2CO2)c(=O)n(CC2CO2)c(=O)n1CC1CO1 (stereo not given) | 24.9 µM and 7.31 µM | 96 µM and > 100 µM
Cc1ccc(C(SCC(N)C(=O)O)(c2ccccc2)c2ccc(C)cc2)cc1 (stereo not given) | 0.526 µM | 26.1 µM
COc1cc(Nc2cn[nH]c2-c2ccc(Cl)cc2)cc(OC)c1OC | 4.6 µM | 69.6 µM
O=C(c1ccccc1)c1cc(Cl)ccc1OCCCCN1CCN(CCCCOc2ccc(Cl)cc2C(=O)c2ccccc2)CC1 | 1.6 µM | 3.22 µM
CNCCNc1c2c(c(NCCNC)c3c(CN(C)C)c[nH]c13)C(=O)c1ccccc1C2=O | 0.933 µM | 12.9 µM
CC1OC2CC(=O)OC2C2=C1C(=O)c1c(O)cccc1C2=O (stereo not given) | 0.0508 µM | 0.112 µM
Oc1ccc(Cl)cc1Cc1cc(Cl)cc(Cl)c1O | 6.31 µM | 28.9 µM
C=C(C=O)C1CCC2(C(=O)O)CCC3(C)C(CCC4C5(C)CCC(O)C(C)(C)C5CCC43C)C12 (stereo not given) | 1.92 µM | 4.21 µM
COc1ccc(N2C(=O)C(c3ccccc3)(c3ccccc3)C23C(=O)N(C)c2ccccc23)cc1 (stereo not given) | > 100 µM | > 100 µM
O=c1c2ccccc2[se]n1-c1cccnc1 | – | 46.7 µM

Test system: HOP-62 NSCLC
Experiment: NCI anticancer screen, dose series, 48 h

SMILES | GI50 | TGI
COc1ccc2c(c1)C(C)Cc1c(Cl)ncnc1N2C (stereo not given) | 0.475 µM | 20.1 µM
COCCOc1cc(F)c2c(Nc3ccc(NC(=O)Cn4cc(C(C)C)nn4)cc3)ncnc2c1 | 22.2 µM | > 100 µM
C#Cc1cccc(Nc2ncnc3cc(OC)c(OCCCCCCC(=O)NO)cc23)c1 | 0.311 µM | 4.57 µM
Cc1nnc(S(=O)(=O)c2ccc(N=Nc3c(N)nc(N)nc3N)cc2)s1 | – | > 100 µM
O=c1n(CC2CO2)c(=O)n(CC2CO2)c(=O)n1CC1CO1 (stereo not given) | 6.38 µM and 15.1 µM | 38.8 µM and 96.1 µM and > 100 µM
Cc1ccc(C(SCC(N)C(=O)O)(c2ccccc2)c2ccc(C)cc2)cc1 (stereo not given) | 2 µM | 18.9 µM
COc1cc(Nc2cn[nH]c2-c2ccc(Cl)cc2)cc(OC)c1OC | 6.91 µM | 44.5 µM
